Holding throughout (assay): Antimalarial Testing In Vitro (IC50) and Measurement of Inhibition Constant (Ki)
Details in all cases: pH 7; 25 °C

Assay [1] has as its target Bifunctional dihydrofolate reductase-thymidylate synthase (Plasmodium falciparum (isolate K1 / Thailand), UniProt P13922). The procedure: (§1) The activity of pfDHFR-TS was determined spectrophotometrically using a UV-Vis spectrophotometer.
Assay [2] concerns the target Bifunctional dihydrofolate reductase-thymidylate synthase (Plasmodium falciparum (isolate K1 / Thailand), UniProt Q8I1R6). The procedure: as §1
Assay [3] addresses Bifunctional dihydrofolate reductase-thymidylate synthase [N51I,C59R,S108N,I164L] (Plasmodium falciparum (isolate K1 / Thailand), UniProt Q8I1R6, C59R/I164L/N51I/S108N). The protocol: as §1

This note sets out measurements from BindingDB's records for doi:10.1038/nsb921 (Mahidol University, 2003).

For orientation: IC50 means the midpoint of a concentration-inhibition curve. A high value points to a need for much substance. Broadly, the Ki is a dissociation constant, usually derived from enzyme kinetics or from competition with a known ligand.

Bifunctional dihydrofolate reductase-thymidylate synthase (Plasmodium falciparum (isolate K1 / Thailand), UniProt Q8I1R6), sequence (Q8I1R6 whole entry): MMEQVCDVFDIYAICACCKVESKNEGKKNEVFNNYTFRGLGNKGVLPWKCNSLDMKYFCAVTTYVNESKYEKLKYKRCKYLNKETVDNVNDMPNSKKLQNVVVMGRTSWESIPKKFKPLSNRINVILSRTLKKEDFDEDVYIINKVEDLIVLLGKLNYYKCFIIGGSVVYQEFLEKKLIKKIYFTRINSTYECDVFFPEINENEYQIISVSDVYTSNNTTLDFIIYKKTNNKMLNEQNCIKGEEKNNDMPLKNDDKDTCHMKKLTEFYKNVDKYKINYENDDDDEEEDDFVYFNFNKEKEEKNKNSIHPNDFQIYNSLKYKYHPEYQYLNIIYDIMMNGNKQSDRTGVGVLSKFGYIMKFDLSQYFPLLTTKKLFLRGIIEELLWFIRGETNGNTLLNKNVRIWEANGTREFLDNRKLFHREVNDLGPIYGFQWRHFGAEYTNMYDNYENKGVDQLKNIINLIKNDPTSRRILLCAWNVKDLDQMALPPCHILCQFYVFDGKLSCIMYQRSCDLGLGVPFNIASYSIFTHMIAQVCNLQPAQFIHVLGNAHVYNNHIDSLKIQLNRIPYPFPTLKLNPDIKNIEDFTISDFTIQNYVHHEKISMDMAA
Bifunctional dihydrofolate reductase-thymidylate synthase (Plasmodium falciparum (isolate K1 / Thailand), UniProt P13922), sequence (P13922 whole entry): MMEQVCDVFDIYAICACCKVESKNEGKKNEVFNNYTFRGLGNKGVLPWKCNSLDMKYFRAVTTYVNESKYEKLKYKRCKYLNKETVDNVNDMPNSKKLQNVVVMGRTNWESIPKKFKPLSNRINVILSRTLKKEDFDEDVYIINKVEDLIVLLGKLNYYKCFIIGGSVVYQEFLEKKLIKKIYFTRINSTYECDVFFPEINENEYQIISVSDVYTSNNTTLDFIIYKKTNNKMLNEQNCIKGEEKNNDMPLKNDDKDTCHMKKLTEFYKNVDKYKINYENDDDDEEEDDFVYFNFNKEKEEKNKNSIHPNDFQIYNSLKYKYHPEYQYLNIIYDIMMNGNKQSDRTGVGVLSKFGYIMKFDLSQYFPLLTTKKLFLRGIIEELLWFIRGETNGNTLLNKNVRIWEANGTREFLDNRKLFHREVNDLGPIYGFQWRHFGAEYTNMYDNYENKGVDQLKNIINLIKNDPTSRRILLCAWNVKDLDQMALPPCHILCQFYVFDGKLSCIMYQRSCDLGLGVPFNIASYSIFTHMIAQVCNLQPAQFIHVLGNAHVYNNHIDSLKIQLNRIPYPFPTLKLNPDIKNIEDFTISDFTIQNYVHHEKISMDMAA
Bifunctional dihydrofolate reductase-thymidylate synthase [N51I,C59R,S108N,I164L], sequence (Q8I1R6 whole entry N51I/C59R/S108N/I164L): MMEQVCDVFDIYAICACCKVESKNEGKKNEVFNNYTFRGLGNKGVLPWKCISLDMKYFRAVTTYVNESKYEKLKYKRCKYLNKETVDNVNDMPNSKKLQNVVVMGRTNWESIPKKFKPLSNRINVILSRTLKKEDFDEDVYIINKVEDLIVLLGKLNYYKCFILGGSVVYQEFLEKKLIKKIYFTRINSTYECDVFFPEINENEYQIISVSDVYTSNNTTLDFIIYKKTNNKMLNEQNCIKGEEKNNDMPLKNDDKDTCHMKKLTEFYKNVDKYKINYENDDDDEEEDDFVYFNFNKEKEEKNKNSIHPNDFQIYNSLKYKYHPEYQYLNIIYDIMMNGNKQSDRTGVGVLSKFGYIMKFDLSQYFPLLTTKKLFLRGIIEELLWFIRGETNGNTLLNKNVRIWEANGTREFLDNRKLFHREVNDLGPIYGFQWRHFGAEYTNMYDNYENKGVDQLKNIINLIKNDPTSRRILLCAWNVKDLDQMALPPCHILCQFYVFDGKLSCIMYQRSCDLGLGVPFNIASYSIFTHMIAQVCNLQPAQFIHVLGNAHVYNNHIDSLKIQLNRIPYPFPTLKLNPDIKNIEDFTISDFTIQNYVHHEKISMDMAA

On to `CC1(C)N=C(N)N=C(N)N1c1ccc(Cl)cc1`, for which the results for the half-maximal inhibitory concentration (IC50) in assay [1], in assay [2] and in assay [3] were 2400 nM, 37 nM and more than 100000 nM, respectively. Further, the inhibitory constant (Ki) amounted to 6.2 nM in assay [1], 0.3 nM in assay [2] and 254 nM in assay [3].

On to `CC1(C)N=C(N)N=C(N)N1OCCCOc1cc(Cl)c(Cl)cc1Cl` [6,6-dimethyl-1-[3-(2,4,5-trichlorophenoxy)propoxy]-1,6-dihydro-1,3,5-triazine-2,4-diamine], for which the concentration for half-maximal inhibition (IC50) in assay [1] came out at 2.3 nM; in assay [2] it was 0.57 nM; in assay [3], 18 nM. The Ki in assay [1] is 0.02 nM; in assay [2], 0.011 nM; in assay [3], 0.037 nM.
